According to ChEMBL document CHEMBL1128030, “Synthesis and biological evaluation of a library containing potentially 1600 amides / esters. A strategy for rapid compound generation and screening” (Bioorg Med Chem Lett, 1994):

Experiments:
Neuromedin-K receptor = biological target: T1, Neuromedin-K receptor (Homo sapiens, UniProt P29371); assay: Compound was tested for its ability to displace [3H]senktide binding to human Tachykinin receptor 3 expressed in CHO cells; format: cell-based
T1 sequence (P29371 whole entry): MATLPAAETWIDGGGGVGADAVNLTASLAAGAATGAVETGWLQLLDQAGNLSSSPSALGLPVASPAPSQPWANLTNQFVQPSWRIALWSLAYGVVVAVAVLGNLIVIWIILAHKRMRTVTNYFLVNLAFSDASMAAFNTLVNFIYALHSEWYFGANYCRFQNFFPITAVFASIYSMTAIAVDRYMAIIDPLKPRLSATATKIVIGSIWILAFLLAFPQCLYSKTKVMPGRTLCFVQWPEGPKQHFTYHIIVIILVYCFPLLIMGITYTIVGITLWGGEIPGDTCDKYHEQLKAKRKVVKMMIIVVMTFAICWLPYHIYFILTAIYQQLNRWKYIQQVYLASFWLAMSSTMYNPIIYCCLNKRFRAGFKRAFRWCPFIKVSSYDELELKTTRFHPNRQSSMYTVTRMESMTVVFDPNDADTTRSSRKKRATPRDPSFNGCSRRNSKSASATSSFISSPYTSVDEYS

Interstitial collagenase = biological target: T2, Interstitial collagenase (Homo sapiens, UniProt P03956); assay: Inhibition of human recombinant MMP-I
T2 sequence (P03956 whole entry): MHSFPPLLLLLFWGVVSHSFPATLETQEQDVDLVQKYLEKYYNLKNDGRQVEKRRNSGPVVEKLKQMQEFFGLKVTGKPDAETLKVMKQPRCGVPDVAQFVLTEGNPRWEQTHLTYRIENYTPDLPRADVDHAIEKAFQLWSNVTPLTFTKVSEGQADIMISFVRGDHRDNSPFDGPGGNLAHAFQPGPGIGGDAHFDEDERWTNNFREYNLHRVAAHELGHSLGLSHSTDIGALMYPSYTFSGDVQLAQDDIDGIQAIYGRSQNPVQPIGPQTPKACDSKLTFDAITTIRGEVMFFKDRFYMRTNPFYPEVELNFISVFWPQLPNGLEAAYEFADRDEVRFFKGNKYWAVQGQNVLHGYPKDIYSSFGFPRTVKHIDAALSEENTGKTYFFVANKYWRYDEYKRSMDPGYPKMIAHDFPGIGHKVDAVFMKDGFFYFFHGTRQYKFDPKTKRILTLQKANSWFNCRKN

| SMILES | IC50 (Neuromedin-K receptor) [µM] | IC50 (Interstitial collagenase) [µM] |
| --- | --- | --- |
| O=C(/C=C/c1ccccc1)N1CCN(C(c2ccccc2)c2ccc(Cl)cc2)CC1 (configuration not stated) | 60 | – |
| N#Cc1ccc(C(=O)Nc2ccccc2N2CCCCC2)cc1 | – | 55 |
